What was measured:
Assay type in all cases: cell-based, human
HMEC [1] = experiment: Inhibition of contraction: alveologenesis after detachment of attached collagen gels; details: donor M10
Procedure: (§1) For contraction assays, 5×10^3 HMEC were plated or 3×10^3 sorted B+ cells/400 μl collagen gel and 1×10^4 LP cells/400 μl collagen gel. At day 12 of culture, 2 ng/μl TGF-β1 (R&D Systems) was added to the culture medium once. For inhibition of contraction experiments, 3×10^3 HMEC (Donor M10) were plated/400 μl collagen gel, and the gels were left attached to the culture dish. At day 13 of culture, when structures had formed, gels were detached and 10 μM Blebbistatin or 5 μM Y-27632 were added to the culture medium every 24 hours. To determine the number of cells per gel, collagen gels were minced using a scalpel, digested with 300 U/ml collagenase I (Sigma) for 1 hour at 37° C., followed by 0.15% trypsin (5 minutes at 37° C.), and filtered to obtain single cells. Cells were counted with a hemocytometer. Images of structures in the gels were acquired on a Leica DM IL LED microscope equipped with a HiPlan 10×/0.22 PH1 objective and images of whole gels were taken with a Zeiss SteREO Lumar.V12 microscope with a NeoLumar S 0.8×objective (6.4× Zoom).

freshly isolated HMEC = experiment: Structure formation by freshly isolated HMEC in floating collagen I gels
Source text: Mammary gland tissue was obtained from healthy women undergoing reduction mammoplasty at the Nymphenburg Clinic for Plastic and Aesthetic Surgery (Christian Gabka), in accordance with the regulations of the ethics committee of the Ludwig-Maximilian University Munich (proposal 397-12). Single cell suspensions of primary HMEC were generated as previously described with minor modifications (Stingl et al., 2005). Briefly, the ductal tree was minced into about 1.0 mm^3 pieces and digested in collagenase I and hyaluronidase (both Sigma), and subsequently with Trypsin-EDTA and dispase (Life Technologies), and then cryopreserved. Before further processing, cells were filtered through a 40 μm strainer, to remove residual tissue fragments and cell aggregates. Cells were seeded in 2D on polystyrene cell culture plates or in collagen I gels in Mammary Epithelial Cell Growth Medium (MECGM, PromoCell) supplemented with 1% Pen/Strep (Invitrogen), 0.5% FCS (Pan Biotech), 3 μM Y-27632 (Biomol) and 10 μM Forskolin (Biomol), unless stated otherwise. After an establishment period of 5 days, medium was changed to MECGM supplemented with 1% Pen/Strep and 10 μM Forskolin, unless stated otherwise.
Single cell suspensions containing the desired amount of cells were quickly mixed with neutralizing solution, and acidified rat tail collagen I (Corning) was added, resulting in a final collagen I concentration of 1.3 mg/ml. Next, the gel mixture was plated into siloxane-coated 24-well or 48-well plates. After polymerization of the gel, medium with supplements was carefully added and gels were detached from the well. Attached and attached-to-floating gels were prepared in uncoated 24-well plates. Cells were maintained for 8 up to 20 days (shorter periods for quantification and longer periods for long term treatments).
Mammary gland tissue was obtained from healthy women undergoing reduction mammoplasty at the Nymphenburg Clinic for Plastic and Aesthetic Surgery (Prof. Christian Gabka), in accordance with the regulations of the ethics committee of the Ludwig-Maximilian University Munich (proposal 397-12). Single cell suspensions of primary HMEC were generated as previously described with minor modifications (Stingl et al., 2005). Briefly, the ductal tree was minced into about 1 mm^3 pieces and enzymatically digested in tissue digestion buffer (F12:DME/HEPES, 1.5% w/v BSA) supplemented with 1 μg/ml insulin, 300 U/ml collagenase and 100 U/ml hyaluronidase (all Sigma) at 37° C. over night. The stromal compartment was optionally separated by differential centrifugation and cryopreserved. The pellet enriched for epithelial cells was further dissociated in 0.15% Trypsin-EDTA and 5 mg/ml dispase (Life Technologies) and then cryopreserved. Before further processing, cells were filtered through a 40 μm strainer, to remove residual tissue fragments and cell aggregates. Freshly isolated primary HMEC were seeded in Mammary Epithelial Cell Growth Medium (MECGM, PromoCell) supplemented with 1% Pen/Strep (Invitrogen), 0.5% FCS (Pan Biotech), 3 μM Y-27632 (Biomol) and 10 μM Forskolin (Biomol), unless otherwise stated. After an establishment period of 5 days, medium was changed to MECGM supplemented 1% Pen/Strep and 10 μM Forskolin, unless otherwise stated. Upon establishment, medium was replaced every 3-4 days. Cells were maintained in 5% CO2, 3% O2 for the whole culture period. […]

HMEC [2] = experiment: ELDA of branched structure-forming units in floating collagen gels after 2D-culture; details: 2D-culture in presence of 10 μM Forskolin, donor M4
Source text: Mammary gland tissue was obtained from healthy women undergoing reduction mammoplasty at the Nymphenburg Clinic for Plastic and Aesthetic Surgery (Christian Gabka), in accordance with the regulations of the ethics committee of the Ludwig-Maximilian University Munich (proposal 397-12). Single cell suspensions of primary HMEC were generated as previously described with minor modifications ([…] et al., 2005). Briefly, the ductal tree was minced into about 1.0 mm^3 pieces and digested in collagenase I and hyaluronidase (both Sigma), and subsequently with Trypsin-EDTA and dispase (Life Technologies), and then cryopreserved. Before further processing, cells were filtered through a 40 μm strainer, to remove residual tissue fragments and cell aggregates. Cells were seeded in 2D on polystyrene cell culture plates or in collagen I gels in Mammary Epithelial Cell Growth Medium (MECGM, PromoCell) supplemented with 1% Pen/Strep (Invitrogen), 0.5% FCS (Pan Biotech), 3 μM Y-27632 (Biomol) and 10 μM Forskolin (Biomol), unless stated otherwise. After an establishment period of 5 days, medium was changed to MECGM supplemented with 1% Pen/Strep and 10 μM Forskolin, unless stated otherwise. […] Gels with at least one branched structure were counted as positive. […] Limiting dilutions were analyzed using a webtool, as described previously (Hu and Smyth, 2009).

LP cells (CD49f+/EpCAM+) = experiment: Contraction of floating collagen I gels containing LP-derived spheres; details: 2.0 ng/ml TGF-β1 once
Procedure: as §1, with “At day 12 of culture, 2 ng/μl TGF-β1 (R&D Systems) was added to the culture medium once.” left out
(§2) Size of gels, structures, and cells was determined with the ImageJ tool for measurement of areas. Quantification of structures was carried out using the ImageJ cell counter. Structures with at least two branching points were considered as branched. For branching point analysis, branches were traced, one main branch was set, and one branching point was counted for each side-branch.

[3] = test system: B+ cells (CD10+/CD49fhi/EpCAM−); experiment: Contraction of floating collagen I gels containing B+ cell derived TDLU-like structures
Procedure: as §1, with “At day 12 of culture, 2 ng/μl TGF-β1 (R&D Systems) was added to the culture medium once.” left out
as §2

[4] = 10 μM Forskolin, continuous treatment, donor M8

Cc1ccc2c(c1)C(=O)C1(O)CCN(c3ccccc3)C1=N2 (stereo not shown) [Blebbistatin]
acquisition of alveolar morphology after gel detachment (HMEC [1]; 10 μM Blebbistatin every 24 hours from detachment at day 13): prevented

C=C[C@@]1(C)CC(=O)[C@]2(O)[C@@]3(C)[C@@H](O)CCC(C)(C)[C@@H]3[C@H](O)[C@H](OC(C)=O)[C@@]2(C)O1 [Forskolin]
increase of formation of TDLU-like branched structures (freshly isolated HMEC; [4]): approximately 12 fold | increase of formation of non-branched structures (mostly spheres) (freshly isolated HMEC; [4]): approximately 1.5 fold | increase of overall branched structure-forming potential (freshly isolated HMEC; [4]): 3 fold | cells giving rise to a TDLU-like structure (B-SFU) (HMEC [2]; passage 1): 1/290 | cells giving rise to a TDLU-like structure (B-SFU) (HMEC [2]; passage 3): 1/250

C[C@@H](N)[C@H]1CC[C@H](C(=O)Nc2ccncc2)CC1 [Y-27632]
acquisition of alveolar morphology after gel detachment (HMEC [1]; 5 μM Y-27632 every 24 hours from detachment at day 13): prevented | increase of branched structure formation (freshly isolated HMEC; 3 μM Y-27632, added upon plating, removed after 5 days, floating collagen I gels, day 14, donor M8): approximately 5 fold | effect of continuous treatment on morphogenesis (freshly isolated HMEC; continuous Y-27632 after 5 days of initial culture, data not shown): dissolution of cell-cell adhesion

TGF-β1: recombinant TGF-β1, morphogen that promotes contractility (R&D Systems)
effect on size of gels (LP cells (CD49f+/EpCAM+); LP-derived spheres, donor M10): did not have an effect | effect on size of gels (LP cells (CD49f+/EpCAM+); M3 luminal cells): slight contraction | average cell size in treated structures versus controls ([3]; TGF-β1-treated B+ derived structures, donor M8, phalloidin F-actin staining): significantly smaller | increase of contraction of the gels ([3]; one-time treatment with 2.0 ng/ml recombinant TGF-β1 at day 12 of culture, gel size 2 days later, donors M3, M10): approximately 2 fold

Reference: patent publication US10900018B2, “Means and methods for generation of breast stem cells” (Helmholtz Zentrum München—Deutsches Forschungszentrum Für …, priority 2015, dated 2021)
